US10501433B2, “Kynurenine-3-monooxygenase inhibitors, pharmaceutical compositions, and methods of use thereof” (CHDI Foundation, Inc., priority 2013, dated 2019)

What follows are molecules tested against T1, KMO mouse enzyme (Mus musculus, UniProt Q91WN4) (assay: KMO enzyme assay monitoring L-Kynurenine hydroxylation to 3OH-KYN by LC/MS (protocols substantially similar to Biology Example 3)). Details: compound at 30 μM; KMO enzyme from mouse liver mitochondria; 100 μM L-Kynurenine.
T1 construct: KMO enzyme prepared at Evotec from mouse liver (4-6 weeks old) via mitochondria isolation; from tissue; host or cells: mouse liver (4-6 weeks old), isolated mitochondria
Assay type: biochemical
Protocol: A method of monitoring L-Kynurenine (KYN) hydroxylation to form 3-Hydroxy-Kynurenine (3OH-KYN) by LC/MS is described. Product is quantified by multiple reaction monitoring (MRM method).
• Compound: Stock concentrations: 10 mM in 100% DMSO • Enzyme: KMO enzyme prepared at Evotec from mouse liver (4-6 weeks old) via mitochondria isolation as described in the literature • Substrate: L-Kynurenine (Sigma: Cat #K3750, stock concentration: 10 mM in 100 mM potassium phosphate buffer, pH 7.4) Assay Conditions: • Buffer: 100 mM potassium phosphate, pH 7.4, 200 μM NADPH, 0.4 U/ml G6P-DH (Glucose 6-phosphate Dehydrogenase), 3 mM G6P (D-Glucose 6-phosphate) • Assay Volume: 40 μl • Plate Format: 384 well plate, transparent (Matrix) • Read-Out: product (3OH-KYN) quantification using product specific MRM • Reader: LC/MS/MS Assay Protocol: • prepare serial dilution (factor 3) of compound in 100% DMSO (top concentration=10 mM, 100% DMSO) • [[…]: 10 mM; 3.33 mM; 1.11 mM; 0.37 mM; 0.12 mM; 0.04 mM; 0.0137 mM; 0.0045 mM, […]] • prepare 3.33-fold concentrated solution of each compound concentration (top concentration 300 μM, 3% DMSO) in assay buffer • [concentrations: 300 μM; 100 μM; 33.3 μM; 11.1 μM; 3.70 μM; 1.23 μM; 0.41 μM; 0.137 μM] • prepare substrate (10 mM) at concentration of 1 mM in assay buffer • assay mix: 4 μl compound/well of each concentration+24 μl assay buffer/well+8 μl KMO mouse enzyme+4 μl 1 mM substrate (final concentration=100 μM) • [final compound top concentration: 30 μM; 0.3% DMSO] • [final compound bottom concentration: 0.0137 μM; 0.3% DMSO] • positive control: 4 μl 50 μM FCE28833 in assay buffer, 0.5% DMSO [final assay concentration=5 μM]+24 μl assay buffer/well+8 μl KMO mouse enzyme+4 μl mM substrate [final concentration=100 μM] • negative control: 28 μl assay buffer/well+8 μl KMO mouse enzyme+4 μl 1 mM substrate • [final concentration=100 μM] • incubate 40 min at RT • add 40 μl/well 10% trichloro acetic acid in water to stop the assay and precipitate protein • centrifuge plate for 3 min at 4000 rpm • product detection by LC/MS (injection of 20 μl/well, 2 fold overfill of the 10 μl sample loop) Data Analysis:
IC50's are calculated using automated fitting algorithm (A+ Analysis).
Using the assay protocols substantially similar to those of Biology Example 3, the following compounds were tested.

T1 sequence (Q91WN4 whole entry): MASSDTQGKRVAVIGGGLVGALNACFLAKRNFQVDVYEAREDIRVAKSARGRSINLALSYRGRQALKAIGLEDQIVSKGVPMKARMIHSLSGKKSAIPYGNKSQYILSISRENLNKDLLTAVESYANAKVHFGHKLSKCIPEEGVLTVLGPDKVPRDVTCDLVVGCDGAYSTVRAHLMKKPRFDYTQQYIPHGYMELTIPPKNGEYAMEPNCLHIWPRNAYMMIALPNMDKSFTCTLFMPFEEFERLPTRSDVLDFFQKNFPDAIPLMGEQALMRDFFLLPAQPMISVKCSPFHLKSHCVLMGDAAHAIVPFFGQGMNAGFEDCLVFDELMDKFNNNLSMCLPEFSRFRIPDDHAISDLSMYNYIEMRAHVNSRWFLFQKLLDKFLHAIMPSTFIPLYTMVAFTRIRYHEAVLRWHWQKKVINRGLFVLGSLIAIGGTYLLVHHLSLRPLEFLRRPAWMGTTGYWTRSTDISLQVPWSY

| Structure (SMILES) | inhibition at 30 µM [%] |
| --- | --- |
| O=C(O)[C@H]1C[C@@H]1C(=O)c1cc(Cl)c2c(c1)CCO2 [Example 1, Method 1, (1S, 2S)-2-(7-chloro-2,3-dihydro-1-benzofuran-5-carbonyl)cyclopropane-1-carboxylic acid] | 100 |
| CC1Cc2cc(C(=O)[C@H]3C[C@@H]3C(=O)O)cc(Cl)c2O1 (stereo partly drawn) [Example 1, Method 6, (1S,2S)-2-(7-chloro-2-methyl-2,3-dihydro-1-benzofuran-5-carbonyl)-cyclo-propane-1-carboxylic acid] | 100 |
| O=C(O)[C@H]1C[C@@H]1C(=O)c1cc(Cl)c2c(c1)OCO2 [Example 1, Method 9, (1S,2S)-2-(7-Chloro-2H-1,3-benzodioxole-5-carbonyl)cyclopropane-1-carboxylic acid] | 102 |
| CC1Cc2cc(C(=O)[C@H]3C[C@@H]3C(=O)O)ccc2O1 (stereo partly drawn) [Example 1, Method 5, (1S,2S)-2-(2-methyl-2,3-dihydro-1-benzofuran-5-carbonyl)cyclopropane-1-carboxylic acid] | 103 |
| CC1Oc2cc(C(=O)[C@H]3C[C@@H]3C(=O)O)cc(Cl)c2O1 (stereo partly drawn) [Example 1, Method 10, (1S,2S)-2-(7-Chloro-2-methyl-2H-1,3-benzodioxole-5-carbonyl)cyclopropane-1-carboxylic acid] | 102 |
| Cn1c(=O)oc2cc(C(=O)[C@H]3C[C@@H]3C(=O)O)cc(Cl)c21 [Example 1, Method 3, (1S,2S)-2-(4-Chloro-3-methyl-2-oxo-2,3-dihydro-1,3-benzoxazole-6-carbonyl)cyclopropane-1-carboxylic acid] | 93.5 |
| O=C(O)[C@H]1C[C@@H]1C(=O)c1ccc2c(c1)OCCO2 [Example 1, Method 4, (1S,2S)-2-(2,3-Dihydro-1,4-benzodioxine-6-carbonyl)cyclopropane-1-carboxylic acid] | 102 |
| O=C(O)[C@H]1C[C@@H]1C(=O)c1cc(Cl)c2c(c1)CCCO2 [Example 1, Method 2, (1S, 2S)-2-(8-Chloro-3,4-dihydro-2H-1-benzopyran-6-carbonyl)cyclopropane-1-carboxylic acid] | 100 |
| CC1COc2c(Cl)cc(C(=O)[C@H]3C[C@@H]3C(=O)O)cc2C1 (stereo partly drawn) [Example 1, Method 7, (1S,2S)-2-(8-Chloro-3-methyl-3,4-dihydro-2H-1-benzopyran-6-carbonyl)cyclo-propane-1-carboxylic acid] | 101 |
| O=C(O)[C@H]1C[C@@H]1C(=O)c1cc(Cl)c2c(c1)OCCO2 [Example 1, Method 8, (1S,2S)-2-(8-Chloro-2,3-dihydro-1,4-benzodioxine-6-carbonyl)cyclopropane-1-carboxylic acid] | 102 |

Results, then the molecule that gave them:

| inhibition at 30 µM [%] | Structure (SMILES) |
| --- | --- |
| 98.7 | O=C(O)[C@H]1C[C@@H]1C(=O)c1ccc2c(c1)CCO2 [Example 2, Method 1, (1S,2S)-2-(2,3-dihydro-1-benzofuran-5-carbonyl)cyclopropane-1-carboxylic acid] |
| 101 | O=C(O)[C@H]1C[C@@H]1C(=O)c1ccc2c(c1)CCCO2 [Example 2, Method 4, (1S,2S)-2-(3,4-dihydro-2H-1-benzopyran-6-carbonyl)cyclopropane-1-carboxylic acid] |
| 101 | Cn1c(=O)oc2c(Cl)cc(C(=O)[C@H]3C[C@@H]3C(=O)O)cc21 [Example 2, Method 3, (1S,2S)-2-(7-Chloro-3-methyl-2-oxo-2,3-dihydro-1,3-benzoxazole-5-carbonyl)cyclopropane-1-carboxylic acid] |
| 101 | O=C(O)[C@H]1C[C@@H]1C(=O)c1ccc2c(c1)SCCO2 [Example 3, Method 5, (1S,2S)-2-(2,3-dihydro-1,4-benzoxathiine-6-carbonyl)cyclopropane-1-carboxylic acid] |
| 64.8 | CC1(C)Cc2cc(C(=O)[C@H]3C[C@@H]3C(=O)O)ccc2O1 [Example 2, Method 5, (1S,2S)-2-(2,2-Dimethyl-2,3-dihydro-1-benzofuran-5-carbonyl)cyclopropane-1-carboxylic acid] |
| 94.1 | O=C(O)[C@H]1C[C@@H]1C(=O)c1ccc2c(c1)OCO2 [Example 4, Method 5, (1S,2S)-2-(2H-1,3-benzodioxole-5-carbonyl)cyclopropane-1-carboxylic acid] |
